Reference: ChEMBL document CHEMBL1817544, “Carbonic anhydrase inhibitors. Synthesis, molecular structures, and inhibition of the human cytosolic isozymes I and II and transmembrane isozymes IX, XII (cancer-associated) and XIV with novel 3-pyridinesulfonamide derivatives” (Eur J Med Chem, 2011)
pKi: −log10 of the molar value.

molecular target: Carbonic anhydrase 9 (Homo sapiens, UniProt Q16790)

pKi | Structure (SMILES)
8.05 | CN(C)c1cc[n+](-c2ccncc2S(N)(=O)=O)cc1
8.12 | NS(=O)(=O)c1cnccc1-[n+]1ccccc1
8.05 | NS(=O)(=O)c1cnccc1Oc1ccncc1S(N)(=O)=O
8.13 | Cc1cccc[n+]1-c1ccncc1S(N)(=O)=O
7.87 | COC1=C(S(N)(=O)=O)C2NS(=O)(=O)c3cnccc3N2C=C1 (centres undefined)
8.00 | Cc1cc[n+](-c2ccncc2S(N)(=O)=O)cc1
7.99 | NS(=O)(=O)c1cnccc1-n1ccccc1=O
8.06 | COC1=CC=CC2N1c1ccncc1S(=O)(=O)N2c1ccncc1S(N)(=O)=O (centres undefined)

molecular target: Carbonic anhydrase 1 (Homo sapiens, UniProt P00915)
Sequence (P00915 whole entry): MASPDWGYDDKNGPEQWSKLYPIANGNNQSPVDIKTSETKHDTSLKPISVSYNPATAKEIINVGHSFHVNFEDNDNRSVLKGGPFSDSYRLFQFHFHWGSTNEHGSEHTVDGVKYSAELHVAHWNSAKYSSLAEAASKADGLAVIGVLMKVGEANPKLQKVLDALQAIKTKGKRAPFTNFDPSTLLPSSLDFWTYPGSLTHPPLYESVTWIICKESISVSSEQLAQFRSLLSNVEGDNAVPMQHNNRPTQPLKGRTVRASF

pKi | Structure (SMILES)
3.60 | NS(=O)(=O)c1cnccc1Oc1ccncc1S(N)(=O)=O
